The text below walks through data of PubChem BioAssay (NCI).

SMILES strings stand for the structures.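 Compound exposure: 48 hours, 5 concentrations, 96-well plates. GI50 marks 50% less growth. The concentration for full growth arrest is given as TGI.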

Some test systems named below: 786-0 renal; HCT-15 colon; HOP-92 NSCLC; HT29 colon; NCI-H522 lung; SK-MEL-28 melanoma; SNB-19 CNS; UACC-257 melanoma; MDA-MB-231 breast.
Common to all, as to assay: growth of human tumour cells (NCI), 48 h

As to `CCOc1ccc2c(c1)[n+]([O-])c(-c1ccc(Cl)cc1)c(N)[n+]2[O-]`, the TGI in the test with 786-0 renal, in the test with HCT-15 colon, in the test on HOP-92 NSCLC, in the test with HT29 colon, in the test on NCI-H522 lung and in the test on SK-MEL-28 melanoma was > 100 µM each time. Besides, the TGI in the test on SNB-19 CNS and in the test on UACC-257 melanoma was > 100 µM throughout.
On to `COc1ccc(Br)c(N/N=C2\CCCNC2=O)c1`, for which the TGI with 786-0 renal, with HCT-15 colon, with HOP-92 NSCLC, in the test with HT29 colon, in the test with NCI-H522 lung and in the test with SK-MEL-28 melanoma was > 100 µM each time. The TGI in the test with SNB-19 CNS and in the test with UACC-257 melanoma was > 100 µM each time.
Take `CCN(CC)c1c(C(=O)/C=C/c2ccc(OC)cc2)c(-c2ccccc2)nn(C)c1=O`: the TGI stood at 41.2 µM in the test on 786-0 renal; 43.4 µM in the test with HOP-92 NSCLC; 41.3 µM in the test on HT29 colon; 35.7 µM in the test on SK-MEL-28 melanoma; 45.9 µM with SNB-19 CNS; 60.8 µM with UACC-257 melanoma.
Consider `CCOC(=O)N1CCN(C=S)CC1`, for which the TGI in the test with 786-0 renal, in the test on HCT-15 colon, with HT29 colon, in the test with NCI-H522 lung, in the test on SK-MEL-28 melanoma and in the test on SNB-19 CNS was > 100 µM each time. For the same compound, the TGI in the test on UACC-257 melanoma was > 100 µM.
In the case of `O=[N+]([O-])c1cc(C(F)(F)F)cc([N+](=O)[O-])c1CCl`, the TGI in the test on 786-0 renal worked out at 8.21 µM; in the test with HOP-92 NSCLC, 19.1 µM; with HT29 colon, 4.03 µM; in the test on NCI-H522 lung, 0.812 µM; in the test with SK-MEL-28 melanoma it was 17.9 µM; in the test with SNB-19 CNS, 19.9 µM. For the same compound, in the test with UACC-257 melanoma, the TGI was found to be 10.2 µM.
`O=C(O)C(SC(=S)c1ccc(C(=S)SC(C(=O)O)c2ccccc2)cc1)c1ccccc1` (stereo not drawn): the TGI in the test on 786-0 renal, with HCT-15 colon, in the test on HOP-92 NSCLC, in the test with HT29 colon, in the test with SK-MEL-28 melanoma and in the test with SNB-19 CNS was > 100 µM each time. Also, the TGI with UACC-257 melanoma is > 100 µM.
Consider `CN1C(=Nc2ccccc2)SC1=Nc1ccccc1`, for which the TGI in the test on 786-0 renal was > 100 µM; in the test on HCT-15 colon, > 100 µM; in the test with HOP-92 NSCLC it was 58.5 µM; with HT29 colon, > 100 µM; in the test with NCI-H522 lung, 41.3 µM; in the test with SK-MEL-28 melanoma, > 100 µM. Further, the TGI in the test with SNB-19 CNS and in the test with UACC-257 melanoma was > 100 µM each time.
For the compound `Cc1cc(=O)n(-c2ccccc2C)c(C)n1`, the TGI in the test with 786-0 renal, in the test on HCT-15 colon, in the test on HOP-92 NSCLC, in the test on HT29 colon, in the test on NCI-H522 lung and in the test on SK-MEL-28 melanoma was > 100 µM in each case. Further, the TGI with SNB-19 CNS and in the test with UACC-257 melanoma was > 100 µM in each case.
Regarding `COc1cc2c(cc1C)NC(=O)/C2=C/c1ccccn1`, the GI50 in the test on 786-0 renal was 2.48 µM; with HOP-92 NSCLC it was 2.9 µM; in the test on HT29 colon it was 5.47 µM; in the test on MDA-MB-231 breast, 2.02 µM; in the test with NCI-H522 lung, 3.37 µM; with SK-MEL-28 melanoma, 10.5 µM. For the same compound, the GI50 in the test with SNB-19 CNS was 4.07 µM; in the test on UACC-257 melanoma it was 13.1 µM. Moreover, the TGI was 8.38 µM with 786-0 renal; 89.4 µM in the test on HOP-92 NSCLC; > 100 µM in the test on HT29 colon; 7.96 µM with MDA-MB-231 breast; > 100 µM in the test with NCI-H522 lung; > 100 µM with SK-MEL-28 melanoma. The TGI in the test on SNB-19 CNS and in the test on UACC-257 melanoma was > 100 µM each time.
With `CCCCOC(=O)C1C2CCC(O2)C1C(=O)OCCCC` (stereo not drawn), the TGI in the test with 786-0 renal was > 60.9 µM; in the test with HCT-15 colon, > 100 µM; in the test with HOP-92 NSCLC, > 100 µM; in the test on HT29 colon it was > 64.2 µM; in the test with NCI-H522 lung, > 100 µM; with SK-MEL-28 melanoma, > 100 µM. Moreover, the figures for the TGI in the test on SNB-19 CNS and in the test with UACC-257 melanoma were > 100 µM and > 92.2 µM, respectively.
As to `CC(=O)CC(=O)OC1CC(C)CCC1C(C)C` (stereo not drawn), the TGI with 786-0 renal, with HCT-15 colon, in the test on HOP-92 NSCLC, with HT29 colon, with NCI-H522 lung and in the test on SK-MEL-28 melanoma was > 100 µM throughout. The TGI with SNB-19 CNS and in the test on UACC-257 melanoma was > 100 µM each time.
In the case of `CCC[CH2][Sn]1([CH2]CCC)[O]C(=O)c2cccnc2[O]1`, the GI50 in the test with 786-0 renal was 2.62 µM; with HCT-15 colon it was 1.9 µM; with HOP-92 NSCLC, 1.01 µM; with HT29 colon, 5.97 µM; with NCI-H522 lung, 0.476 µM; in the test on SK-MEL-28 melanoma it was 3.92 µM. The GI50 is 2.65 µM in the test with SNB-19 CNS and 1.55 µM in the test on UACC-257 melanoma. Besides, the TGI was 8.01 µM in the test on 786-0 renal; 3.66 µM with HCT-15 colon; 4.63 µM with HOP-92 NSCLC; 19.5 µM with HT29 colon; 1.67 µM in the test with NCI-H522 lung; 11.9 µM in the test on SK-MEL-28 melanoma. Also, the TGI in the test with SNB-19 CNS is 10.6 µM; with UACC-257 melanoma, 5.04 µM.
Take `COC(=O)/C(C)=C(/CCC1(C)OCCO1)O[Si](C)(C)C`: the TGI in the test with 786-0 renal, in the test with HCT-15 colon, in the test on HOP-92 NSCLC, with HT29 colon, in the test with SNB-19 CNS and with UACC-257 melanoma was > 100 µM throughout.
With `CCCCNc1nc(C#N)c(N)s1`, the TGI in the test on 786-0 renal, in the test with HCT-15 colon, in the test with HOP-92 NSCLC, in the test on HT29 colon, in the test on NCI-H522 lung and in the test on SK-MEL-28 melanoma was > 100 µM in each case. Besides, the TGI in the test with SNB-19 CNS and with UACC-257 melanoma was > 100 µM throughout.
Turning to `CN(C)CC/C(=N\Nc1ccc([N+](=O)[O-])cc1)c1ccccc1`, the TGI in the test with 786-0 renal came out at 27.1 µM; with HCT-15 colon, 27.2 µM; in the test on HT29 colon, 21.2 µM; in the test on NCI-H522 lung, 29.1 µM; in the test with SK-MEL-28 melanoma, 25.3 µM; with SNB-19 CNS, 28.9 µM. Moreover, the TGI with UACC-257 melanoma is 30.5 µM.
